# Results reported in patent publication US20140303105A1, “Primycin and components thereof for use in the treatment or prevention of infections caused by specific pathogens” (PANNONPHARMA GYÓGYSZERGYÁRTÓ ZRT., priority 2011, published 2014).
# Key:
# [1] = test system: Staphylococcus aureus, methicillin susceptible; assay: Standard microdilution susceptibility test, clinical isolates; assay type: cell-based; conditions: 10 clinical isolates; for MIC50 / MIC90: Staphylococcus aureus; for MIC50: read-out: MIC 50%; for MIC90: read-out: MIC 90%
# [2] = test system: Streptococcus viridans sp.; assay: as above; assay type: cell-based; conditions: 20 clinical isolates; for MIC50 / MIC90: Streptococcus viridans; for MIC50: read-out: MIC 50%; for MIC90: read-out: MIC 90%
# [3] = test system: Coagulase-negative Staphylococus sp., methicillin susceptible; assay: as above; assay type: cell-based; conditions: 10 clinical isolates; for MIC50: read-out: MIC 50%; for MIC90: read-out: MIC 90%
# [4] = test system: Staphylococcus aureus, methicillin resistant; assay: as above; assay type: cell-based; conditions: 10 clinical isolates; for MIC50 / MIC90: Staphylococcus aureus; for MIC50: read-out: MIC 50%; for MIC90: read-out: MIC 90%
# [5] = test system: Coagulase-negative Staphylococus sp., methicillin resistant; assay: as above; assay type: cell-based; conditions: 10 clinical isolates; for MIC50: read-out: MIC 50%; for MIC90: read-out: MIC 90%
# [6] = test system: Streptococcus pneumoniae, penicillin susceptible; assay: as above; assay type: cell-based; conditions: 10 clinical isolates; for MIC50 / MIC90: Streptococcus pneumoniae; for MIC50: read-out: MIC 50%; for MIC90: read-out: MIC 90%
# [7] = test system: Enterococcus sp., decreased vancomycin susceptibility; assay: as above; assay type: cell-based; conditions: 5 clinical isolates
# [8] = test system: Streptococcus pneumoniae, penicillin resistant; assay: as above; assay type: cell-based; conditions: 10 clinical isolates; for MIC50 / MIC90: Streptococcus pneumoniae; for MIC50: read-out: MIC 50%; for MIC90: read-out: MIC 90%
# [9] = test system: Enterococcus sp., vancomycin susceptible; assay: as above; assay type: cell-based; conditions: 20 clinical isolates; for MIC50 / MIC90: Enterococcus; for MIC50: read-out: MIC 50%; for MIC90: read-out: MIC 90%
# [10] = test system: Staphylococcus aureus ATCC 25923; conditions: cited from earlier work
# [11] = test system: Staphylococcus epidermidis 7586; conditions: cited from earlier work
# [12] = test system: Escherichia coli B 1218; conditions: cited from earlier work
# [13] = test system: Streptococcus simulans 7866; conditions: cited from earlier work
# [14] = test system: Streptococcus mitis 5728; conditions: cited from earlier work
# [15] = test system: Diphteroides 8264; conditions: cited from earlier work
# [16] = test system: Bacillus subtilis ATCC 6633; conditions: cited from earlier work
# [17] = test system: Serotype β Streptococcus 8252; conditions: cited from earlier work
# [18] = test system: Staphylococcus capitis; conditions: cited from earlier work
# [19] = test system: Staphylococcus saprophyticus 8454; conditions: cited from earlier work
# [20] = test system: Staphylococcus hominis 7835; conditions: cited from earlier work
# [21] = test system: Staphylococcus aureus 7503; conditions: cited from earlier work
# [22] = test system: Micrococcus spp.; conditions: cited from earlier work
# [23] = test system: Propionibacterium acnes; conditions: cited from earlier work
# [24] = test system: Enterobacter cloacae B 520; conditions: cited from earlier work
MIC Range [1] [µg/mL],MIC50 [1] [µg/mL],MIC90 [1] [µg/mL],MIC50 [2] [µg/mL],MIC90 [2] [µg/mL],MIC50 [3] [µg/mL],MIC90 [3] [µg/mL],MIC50 [4] [µg/mL],MIC90 [4] [µg/mL],MIC50 [5] [µg/mL],MIC90 [5] [µg/mL],MIC Range [6] [µg/mL],MIC50 [6] [µg/mL],MIC90 [6] [µg/mL],Compound,Ratio of Sensitive/Total [1],Ratio of Sensitive/Total [2],Ratio of Sensitive/Total [3],Ratio of Sensitive/Total [4],Ratio of Sensitive/Total [5],Ratio of Sensitive/Total [6],further results
0.5 to 1,0.5,1,2,4,1,1,16,> 16,> 16,> 16,1 to 4,2,2,CC1COc2c(N3CCN(C)CC3)c(F)cc3c(=O)c(C(=O)O)cn1c23 (stereo not drawn) [Ofloxacin],10/10,14/20,10/10,1/10,0/10,9/10,MIC Range [2]: 1 to 8 µg/mL; MIC Range [3]: 0.25 to 1 µg/mL; MIC Range [7]: 2 to 8 µg/mL; Ratio of Sensitive/Total [7]: 2/5; MIC Range [8]: 1 to 2 µg/mL; Ratio of Sensitive/Total [8]: 10/10; MIC50 [8]: 1 µg/mL; MIC90 [8]: 2 µg/mL; Ratio of Sensitive/Total [9]: 3/20; MIC50 [9]: 4 µg/mL; MIC90 [9]: > 16 µg/mL
0.25 to 32,0.25,32,4,> 32,0.25,1,0.25,0.25,1,> 32,1 to 8,1,8,CN(C)[C@@H]1C(O)=C(C(N)=O)C(=O)[C@@]2(O)C(O)=C3C(=O)c4c(O)cccc4[C@@](C)(O)[C@H]3[C@H](O)[C@@H]12 [Oxytetracycline],8/10,10/20,9/10,10/10,8/10,8/10,MIC Range [4]: 0.125 to 0.25 µg/mL; MIC Range [7]: 0.25 to 16 µg/mL; Ratio of Sensitive/Total [7]: 2/5; Ratio of Sensitive/Total [8]: 1/10; MIC50 [8]: 32 µg/mL; MIC90 [8]: > 32 µg/mL; Ratio of Sensitive/Total [9]: 6/20; MIC50 [9]: 16 µg/mL; MIC90 [9]: 32 µg/mL
,,,,,,,,,,,,,,[H]/N=C(/N)N[C@H]1[C@H](O)[C@@H](O)[C@H](O[C@@H]2O[C@@H](C)[C@](O)(C=O)[C@H]2O[C@@H]2O[C@@H](CO)[C@H](O)[C@@H](O)[C@@H]2NC)[C@@H](N/C(N)=N\[H])[C@@H]1O [Streptomycin],,,,,,,MIC [10]: 3.9 µg/mL; MIC [11]: 2.0 µg/mL; MIC [12]: 15.6 µg/mL; MIC [13]: 2.0 µg/mL; MIC [14]: 250 µg/mL; MIC [15]: >250 µg/mL; MIC [16]: 1.0 µg/mL; MIC [17]: 3.9 µg/mL; MIC [18]: 3.9 µg/mL; MIC [19]: 1.0 µg/mL; MIC [20]: 2.0 µg/mL; MIC [21]: 2.0 µg/mL; MIC [22]: 3.9 µg/mL; MIC [23]: <0.5 µg/mL; MIC [24]: 7.8 µg/mL
